# Several values for one entry are separate records, joined by “and”; a condition that tells them apart may be missing. Identical values can stand only once.
# Tests used:
# Nurr1-LBD [1] = molecular target: T1, Nurr1-LBD (Homo sapiens, UniProt P43354); experiment: Radioligand competition binding assay using [3H]-CQ
# full-length Nurr1 = molecular target: T2, full-length Nurr1 (Homo sapiens, UniProt P43354); experiment: Luciferase activity assay (p4xNL3-Luc reporter) with full-length Nurr1 in SK-N-BE(2)C cells; format: cell-based
# T2 construct: expressed in transfected cells; host or cells: SK-N-BE(2)C human neuroblastoma cells
# T2 sequence (P43354 whole entry): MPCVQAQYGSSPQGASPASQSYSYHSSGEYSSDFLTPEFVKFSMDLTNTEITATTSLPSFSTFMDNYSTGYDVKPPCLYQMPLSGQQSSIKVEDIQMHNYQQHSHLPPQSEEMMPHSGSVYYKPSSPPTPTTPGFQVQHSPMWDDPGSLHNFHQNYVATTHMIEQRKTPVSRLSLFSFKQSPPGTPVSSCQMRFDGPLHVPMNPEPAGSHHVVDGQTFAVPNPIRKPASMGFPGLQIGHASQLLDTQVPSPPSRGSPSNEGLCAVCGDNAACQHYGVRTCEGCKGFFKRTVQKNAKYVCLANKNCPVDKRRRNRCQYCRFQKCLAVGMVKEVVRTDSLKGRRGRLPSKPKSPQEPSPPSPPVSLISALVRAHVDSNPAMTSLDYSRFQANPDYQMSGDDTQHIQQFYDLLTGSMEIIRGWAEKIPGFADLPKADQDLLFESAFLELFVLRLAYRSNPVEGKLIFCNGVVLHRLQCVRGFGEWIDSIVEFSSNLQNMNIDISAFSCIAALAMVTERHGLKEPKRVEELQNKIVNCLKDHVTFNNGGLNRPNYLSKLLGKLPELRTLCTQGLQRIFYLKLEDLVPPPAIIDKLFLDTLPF
# [2] = system: Nurr1-LBD and full-length Nurr1; experiment: Luciferase activity assay (Nurr1 transactivation) in MN9D cells; format: cell-based, murine
# [3] = system: Nurr1-LBD and full-length Nurr1; experiment: Luciferase activity assay (Nurr1 transactivation) in N27-A cells; format: cell-based, murine
# Nurr1 = molecular target: T3, Nurr1 (Homo sapiens, UniProt P43354); experiment: Relative luciferase activity versus previously reported compounds in SK-N-BE(2)C cells; format: cell-based; details: compared with control, AQ, CQ, SM-485, ATH-393, SR-175
# T3 construct: expressed in transfected cells; host or cells: SK-N-BE(2)C cells
# T3 sequence (P43354 whole entry): as above
# Excerpt: Each bar indicates Mean±SEM from three independent experiments.
# [4] = Brain permeability (plasma and brain levels by LC-MS/MS) after i.v. injection; format: in vivo; details: rats, 5 mg/kg i.v., 5 min and 1 hr
# Method: Rats (n=6) were killed at 5 min and 1 hr after i.v. administration, and brain and plasma were collected for blood-brain barrier (BBB) penetration analysis. The concentrations of each compound in plasma (A) and brain (B) were determined by LC-MS/MS (liquid chromatography-tandem mass spectrometry). The brain/plasma ratio (B/P ratio) (C) is calculated at each time point.
# [5] = system: mouse embryonic ventral mesencephalic (mVM) primary neurons; experiment: Dopaminergic gene expression in mVM primary neurons with or without 6-OHDA; format: cell-based
# Method: FIGS. 8A-8D show dopaminergic (DAergic) gene expressions in the absence or presence of 6-OHDA (20 μM) in mouse embryonic ventral mesencephalic (mVM) primary neurons derived from embryonic day 12.5 (E12.5).
# BV2 cells = experiment: LPS-induced TNFα mRNA expression in BV2 cells (real-time PCR); format: cell-based, mouse; details: LPS 1 μg/ml, compound 1 μM
# Excerpt: (§1) Besides the role as an activator of DAergic genes, Nurr1 is known as a repressor of inflammatory genes in astrocytes and microglia (See Saijo et al., Cell 2009, 137, 47-59).
# [6] = system: mouse bone marrow-derived primary macrophages (mBMMs); experiment: LPS- or poly(I:C)-induced pro-inflammatory gene expression in mBMMs; format: cell-based; details: CQ 10 μM, SPV-94 1 μM
# Excerpt: as §1
# HeLa cells = experiment: Starvation-induced autophagy in HeLa cells (Western blot of LC3B and p62); format: cell-based; details: EBSS 0-4 hrs, BafA1 10 nM, CQ 20 μM, SPV-94 1 μM
# Method: To limit basal autophagy, cells were incubated in fresh growth medium for 1 hr before starvation. Samples were analyzed by Western blot using autophagic flux markers LC3B and p62 (A) and its expression levels were quantified (10B and 10C).
# N27-A cells [7] = experiment: Starvation-induced autophagy and Nurr1 expression in N27-A cells with or without MPP+; format: cell-based
# Method: LC3B, p62 and Nurr1 expression levels determined by Western blot (D) were quantified.
# Next, autophagy regulation was assessed in a dopaminergic cell line N27-A in the absence or presence of MPP^+ (1 mM). […] Furthermore, it was observed that MPP disrupted autophagy showing accumulated LC3B-II and remained p62 at the late-stage, which corresponds to the previous studies (See Lim et al., Autophagy 2011, 7, 51-60; Hung et al., PLoS ONE 2014, 9, e91074; Park et al., J Biol Chem 2016, 291, 3531-3540).
# Referring to FIGS. 10D-10G, N27-A cells were treated with vehicle or MPP+ (1 mM) for 24 hrs and then changed with fresh growth medium with or without MPP+ 1 hr before starvation. […] To induce autophagy, N27-A cells were incubated in EBSS for 0-4 hrs, in the absence or presence of MPP+. Samples were analyzed by Western blot using autophagic flux markers LC3B and p62 (D) and its expression levels were quantified (10E and 10F). […] (10G) Nurr1 expression level changes were also analyzed and quantified.
# [8] = pH 7.4
# MN9D cells [9] = system: MN9D cells
# Method: (§2) Cell viability and cytotoxicity were measured by MTT (3-(4,5-dimethylthiazol-2-yl)-2,5-diphenyltetrazolium bromide) reduction assay.
# (§3) Cell viability and cytotoxicity were measured by lactate dehydrogenase (LDH) release assay.
# [10] = system: MPTP-induced PD model mice; details: mouse, in vivo
# Method: (§4) Sub-chronic MPTP regimen (30 mg/kg/day, 5 days) was introduced.
# [11] = system: MPTP-induced PD model mice; experiment: Sub-chronic MPTP-induced mice model of PD
# Method: as §4
# N27-A cells [12] = experiment: Protection against MPP+-induced toxicity in N27-A cells (MTT, LDH); details: 1 mM MPP+
# Nurr1-LBD [13] = molecular target: T1, Nurr1-LBD; experiment: Luciferase activity assay (p4xNL3-Luc reporter) with Nurr1-LBD in SK-N-BE(2)C cells; format: cell-based; set-up: expressed in transfected cells; host or cells: SK-N-BE(2)C human neuroblastoma cells
# MN9D cells [14] = experiment: Protection against MPP+-induced toxicity in MN9D cells (MTT reduction, LDH release)
# Method: as §2, §3
# [15] = L-DOPA 50, CQ 40, SPV-94 5 mg/kg/day
# T1 sequence (P43354 360-595 limits assumed): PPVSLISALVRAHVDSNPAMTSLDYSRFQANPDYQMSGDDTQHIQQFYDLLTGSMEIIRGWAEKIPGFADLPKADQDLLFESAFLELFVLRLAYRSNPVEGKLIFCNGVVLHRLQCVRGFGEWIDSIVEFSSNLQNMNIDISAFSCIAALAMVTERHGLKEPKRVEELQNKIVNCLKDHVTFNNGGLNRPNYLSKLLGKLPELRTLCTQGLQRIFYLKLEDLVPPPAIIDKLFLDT
smiles,measurement,setting,value
CCN1CCN(c2cc(NCCNc3ccnc4cc(Cl)ccc34)nc(N3CCN(CC)CC3)n2)CC1 [SPV-94],Ki,Nurr1-LBD [1],0.0111 µM
same,IC50,"Nurr1-LBD [1]; 1,000 nM [3H]-CQ, 0.2 μM Nurr1-LBD, estimated, read-out: half maximal inhibitory concentration (IC50), competition with [3H]-CQ for binding to Nurr1-LBD",0.05 µM
same,"times higher affinity to Nurr1-LBD than CQ, based on IC50s",Nurr1-LBD [1]; versus CQ,20 times
same,"concentration of maximal efficiency, full-length Nurr1 transcriptional activity",full-length Nurr1; SK-N-BE(2)C cells,20 µM
same,EC50,"full-length Nurr1; SK-N-BE(2)C cells, read-out: EC50, transcriptional activity of full-length Nurr1",~10 µM and 10 µM
same,"fold lower concentration of maximal efficiency than CQ, full-length Nurr1",full-length Nurr1; versus CQ,5 fold
same,EC50,[2],~0.05 µM
same,transcriptional activities of Nurr1-LBD and full-length Nurr1,[2],enhanced transcriptional activities
same,EC50,[3],~0.05 µM
same,transcriptional activities of Nurr1-LBD and full-length Nurr1,[3],enhanced transcriptional activities
same,relative luciferase activity (transactivity) among selected candidates,Nurr1,markedly highest transactivity among the selected candidates
same,"penetration into the brain (brain and plasma concentration, B/P ratio)",[4],penetrated into the brain slower than CQ and consistently maintained its level
same,DAergic gene expressions downregulated by 6-OHDA toxicity,"[5]; 6-OHDA 20 μM, CQ 20 μM, SPV-94 0.5 μM",significant recovery of downregulated DAergic gene expressions
same,"mRNA expression levels of DAergic genes (TH, DAT, AADC, VMAT2, c-Ret, Pitx3)","[5]; CQ 20 μM, SPV-94 0.5 μM, vs vehicle",significantly upregulated mRNA expression levels of DAergic genes
same,effects on DAergic gene expression in Nurr1 knockdown condition,[5]; Nurr1 KD,disappeared
same,suppression of TNFα expression compared to LPS only,BV2 cells,20.67%
same,"LPS- or poly(I:C)-induced pro-inflammatory gene expressions (TNFα, iNOS, IL-1β, IL-6)",[6],dramatically suppressed all four pro-inflammatory gene expressions
same,"autophagy process (LC3B, p62)",HeLa cells,initiated and also terminated autophagy process resulting in significant p62 degradation
same,basal Nurr1 expression level compared to VEH,"N27-A cells [7]; CQ 20 μM, SPV-94 1 μM",significantly higher
same,MPP+-induced autophagy dysregulation (p62 degradation),N27-A cells [7]; MPP+ 1 mM,seemed to protect N27-A cells from MPP+-induced autophagy dysregulation leading to successful p62 degradation
same,Nurr1 expression against MPP+,"N27-A cells [7]; MPP+ 1 mM, SPV-94 1 μM",maintained Nurr1 expression against MPP+
same,"autophagy termination (LC3B, p62)","N27-A cells [7]; starvation 0-4 hrs, BafA1 10 nM, CQ 20 μM, SPV-94 1 μM",autophagy was successfully terminated
same,solubility,[8],504.88 µM
same,"times lower concentration of maximal efficiency than CQ, protection from MPP+-induced cytotoxicity",MN9D cells [9],10 times
same,dyskinesia in the abnormal involuntary movements (AIMs) test,[10],did not trigger dyskinesia
same,"olfactory discrimination test (olfaction), sub-acute stage",[11],significantly recovered olfaction
same,body weight recovery,[11]; [15],"restored it even earlier, after day 6"
same,"cylinder test, rearing numbers, sub-chronic treatment",[11]; [15],recovered rearing numbers in the cylinder test
same,"pole test, time to traverse, sub-chronic treatment",[11]; [15],reduced time to traverse on a pole
same,"rotarod latency to fall, sub-chronic treatment",[11]; [15],significantly improved motor deficits on the rotarod latency to fall
same,Nurr1-immunoreactive cells,[11]; SNpc,significantly retained Nurr1-immunoreactive cells
same,"GFAP immunoreactivity, activated astrocytes",[11]; STR,reduced number of activated astrocytes
same,Iba-1+ microglia numbers,[11]; STR and SNpc,significantly reduced numbers of Iba-1+ microglia
same,TH+ DAergic neurons (counting and densitometry),"[11]; STR, SNpc and OB",significantly restored DAergic neurons
same,"olfactory discrimination test (olfaction), chronic treatment",[11]; day 14,significantly recovered olfaction
same,"rotarod latency to fall, chronic treatment",[11]; day 15,improved latency to fall on the rotarod on day 15
same,"cell viability, MTT assay",N27-A cells [12],dose-dependently increased cell viability in MTT assay
same,"concentration of maximal efficiency, Nurr1-LBD transcriptional activity",Nurr1-LBD [13]; SK-N-BE(2)C cells,20 µM
same,EC50,"Nurr1-LBD [13]; SK-N-BE(2)C cells, read-out: EC50, transcriptional activity of Nurr1-LBD",~10 µM and 10 µM
same,"fold lower concentration of maximal efficiency than CQ, Nurr1-LBD",Nurr1-LBD [13]; versus CQ,5 fold
same,"cell viability, MTT reduction assay",MN9D cells [14]; 500 μM MPP+,dose-dependently increased cell viability
same,protective effect against MPP+-induced toxicity under Nurr1 overexpression (OE),"MN9D cells [14]; CQ 100 μM, SPV-94 1 μM, vs Mock",potentiated protective effects

# Reference: patent US20230312510A1, “COMPOUNDS AND METHODS FOR TREATING NEURODEGENERATIVE DISEASES” (The McLean Hospital Corporation, priority 2020, published 2023)
